Data: ChEMBL document CHEMBL3632572, “Adenosine/guanosine preferring nucleoside ribohydrolase is a distinct, druggable antitrichomonal target” (Bioorg Med Chem Lett, 2015)
Active and inactive are the calls of the source. The rule behind the calls is not given here.

Legend:
Trichomonas vaginalis = assay: Inhibition of Trichomonas vaginalis uridine ribohydrolase after 40 mins
[1] = Inhibition of Trichomonas vaginalis adenosine-guanosine preferring ribohydrolase after 40 mins
[2] = Inhibition of Trichomonas vaginalis adenosine-guanosine preferring ribohydrolase after 40 mins in presence of 0.01% triton X-100

Compound: O=c1c(O[C@@H]2O[C@H](CO)[C@@H](O)[C@H](O)[C@H]2O)c(-c2ccc(O)c(O)c2)oc2cc(O)cc(O)c12 [ISOQUERCETIN]
- inhibition (Trichomonas vaginalis): inactive
- IC50 [1]: 0.3 µM
- IC50 [2]: 0.9 µM

Compound: OC[C@H]1O[C@@H](n2cnc3c(NC4CCCC4)nc(Cl)nc32)[C@H](O)[C@@H]1O
- inhibition (Trichomonas vaginalis): inactive
- IC50 [1]: 9.8 µM
- IC50 [2]: 11.7 µM

Compound: O=C1c2c(O)cc(O)cc2OC(c2ccc(O)c(O)c2)C1O (racemic) [TAXIFOLIN]
- inhibition (Trichomonas vaginalis): inactive
- IC50 [1]: 5.9 µM
- IC50 [2]: 12.5 µM

Compound: Cc1ccc(NC(=O)c2ccc(CN3CCN(C)CC3)cc2)cc1Nc1nccc(-c2cccnc2)n1 [IMATINIB]
- inhibition (Trichomonas vaginalis): inactive
- IC50 [1]: 1.8 µM
- IC50 [2]: 3.5 µM

Compound: O=c1c(O[C@@H]2O[C@H](CO)[C@H](O)[C@H](O)[C@H]2O)c(-c2ccc(O)c(O)c2)oc2cc(O)cc(O)c12 [HYPEROSIDE]
- inhibition (Trichomonas vaginalis): inactive
- IC50 [1]: 2.2 µM
- IC50 [2]: 4 µM

Compound: O=C1c2c(O)cc(O)cc2O[C@H](c2ccc(O)c(O)c2)[C@H]1O [(+)-TAXIFOLIN]
- inhibition (Trichomonas vaginalis): inactive
- IC50 [1]: 9.3 µM
- IC50 [2]: 34.2 µM

Compound: COc1ccccc1OCCNCC(O)COc1cccc2[nH]c3ccccc3c12 (stereo not drawn) [CARVEDILOL]
- inhibition (Trichomonas vaginalis): inactive
- IC50 [1]: 10.4 µM

Compound: C[C@@H]1O[C@@H](OC[C@H]2O[C@@H](Oc3c(-c4ccc(O)c(O)c4)oc4cc(O)cc(O)c4c3=O)[C@H](O)[C@@H](O)[C@@H]2O)[C@H](O)[C@H](O)[C@H]1O [RUTIN]
- inhibition (Trichomonas vaginalis): inactive
- IC50 [1]: 10.2 µM
- IC50 [2]: 17.3 µM
